Results from US20240360289A1, “EPOXY RESIN FOAM, CARBON DIOXIDE ABSORBENT, METHOD FOR PRODUCING EPOXY RESIN FOAM, MULTILAYER STRUCTURE AND METHOD FOR PRODUCING SAME” (MITSUBISHI GAS CHEMICAL COMPANY, INC., priority 2021, published 2024).

Assay: Maximum carbon dioxide release temperature of amine compound (DSC after CO2 absorption)
Type: physicochemical
Conditions: amine compound after 24 hours in air at 23° C. and 50% RH; DSC 23 to 250° C., 10° C./minute, nitrogen
Description: (Maximum Carbon Dioxide (CO2) Release Temperature of Amine Compound)
A carbon dioxide detector and a Petri dish were placed in an openable desiccator (inner dimension: 370 mm×260 mm×272 mm). Subsequently the amine compound (5 mmol) was added to the Petri dish in the desiccator and the door was immediately closed to leave the amine compound to stand in the desiccator in an air environment at 23° C. and 50% RH for 24 hours. The initial concentration of carbon dioxide was adjusted to about 400 ppm.
Then the amine compound was removed from the desiccator to give an amine compound with carbon dioxide absorbed. The maximum carbon dioxide release temperature of the amine compound with carbon dioxide absorbed was measured by subjecting the amine compound to DSC as described below. First, differential scanning calorimetry of the amine compound was performed under conditions of a temperature range of 23 to 250° C., a heating rate of 10° C./minute and a nitrogen atmosphere using a differential thermogravimeter (product name DTG-60 made by Shimadzu Corporation). The temperature at which the amount of heat absorbed due to the desorption of carbon dioxide was the maximum was calculated from the DSC curve obtained, and the temperature was determined as the maximum carbon dioxide release temperature of the amine compound.

Maximum carbon dioxide release temperature | Compound
125.7 °C | NCC1CCCC(CN)C1 (centres unmarked) [1,3-BAC, 1,3-bis(aminomethyl)cyclohexane]
81.9 °C | NCCN1CCNCC1 [AEP, N-(2-aminoethyl) piperazine]
135.5 °C | NCc1cccc(CN)c1 [MXDA, metaxylylenediamine]

Compound | Maximum carbon dioxide release temperature
CC1(C)CC(N)CC(C)(CN)C1 (centres unmarked) [IPDA, isophoronediamine] | 114.4 °C
NC1CCC(CC2CCC(N)CC2)CC1 (centres unmarked) [PACM, 4,4′-methylenebis(cyclohexylamine), reference compound] | 53 °C
